Among the data in ChEMBL document CHEMBL3817810, “Four new minor brominated indole related alkaloids with antibacterial activities from Laurencia similis” (2016) are MIC values, retold here.

Structures are written as SMILES. Converted amounts (≈) assume the structure as drawn. A value given as a limit tells only on which side of the number the result lay.

What all share (format): functional
Experiment [1] deals with Pseudomonas amygdali pv. lachrymans. The experiment is described as follows: Antibacterial activity against Pseudomonas lachrymans by broth microdilution assay. For orientation: Dilution methods test growth across graded concentrations, often in twofold steps.
A further experiment concerns Bacillus subtilis. The experiment is described as follows: Antibacterial activity against Bacillus subtilis by broth microdilution assay.
A further experiment relates to Bacillus thuringiensis. As to the kind of experiment: Antibacterial activity against Bacillus thuringiensis by broth microdilution assay.
The subject of the next experiment is Staphylococcus aureus. As to the kind of experiment: Antibacterial activity against Staphylococcus aureus by broth microdilution assay.
In the next experiment the test system is Ralstonia solanacearum. The experiment is described as follows: Antibacterial activity against Ralstonia solanacearum by broth microdilution assay.
In a further experiment the test system is Xanthomonas vesicatoria. As to the kind of experiment: Antibacterial activity against Xanthomonas vesicatoria by broth microdilution assay.
The test system of experiment [2] is Agrobacterium tumefaciens. The experiment is described as follows: Antibacterial activity against Agrobacterium tumefaciens by broth microdilution assay.

Turning to `Cc1cc(C)c2[nH]c3cc(Br)c(Br)cc3c2c1`, the MIC – broadly, the lowest concentration found to suppress growth – in experiment [1] is greater than 250 µg/mL; in the experiment with Bacillus subtilis, greater than 250 µg/mL; with Bacillus thuringiensis it was greater than 250 µg/mL; against Staphylococcus aureus, greater than 250 µg/mL; with Ralstonia solanacearum it was greater than 250 µg/mL; with Xanthomonas vesicatoria it was 50 µg/mL (≈ 142 µM). The MIC in experiment [2] is greater than 250 µg/mL.
Take `Oc1ccc(Cc2c(Br)[nH]c3cc(Br)c(Br)cc23)cc1Br`: the MIC in experiment [1] was 8 µg/mL (≈ 14.8 µM); in the experiment on Bacillus subtilis, 8 µg/mL (≈ 14.8 µM); in the experiment with Bacillus thuringiensis, 8 µg/mL (≈ 14.8 µM); in the experiment with Staphylococcus aureus, 2 µg/mL (≈ 3.71 µM); against Ralstonia solanacearum, 4 µg/mL (≈ 7.42 µM); in the experiment on Xanthomonas vesicatoria, 8 µg/mL (≈ 14.8 µM). The same molecule displayed an MIC in experiment [2] of 4 µg/mL (≈ 7.42 µM).
Regarding `CC(C)=C1C(=O)N(O)c2cc(Br)c(Br)cc21`, the MIC was 50 µg/mL (≈ 144 µM) in experiment [1]; 50 µg/mL (≈ 144 µM) against Bacillus subtilis; 50 µg/mL (≈ 144 µM) with Bacillus thuringiensis; 12.5 µg/mL (≈ 36 µM) with Staphylococcus aureus; 50 µg/mL (≈ 144 µM) against Ralstonia solanacearum; greater than 250 µg/mL in the experiment with Xanthomonas vesicatoria. The molecule further displayed an MIC in experiment [2] of 12.5 µg/mL (≈ 36 µM).
On to `CC1(C)S[C@@H]2[C@H](NC(=O)Cc3ccccc3)C(=O)N2[C@H]1C(=O)O` [PENICILLIN G], for which the minimum inhibitory concentration (MIC) is 250 µg/mL (≈ 748 µM) in experiment [1]; 0.125 µg/mL (≈ 0.374 µM) against Bacillus subtilis; 64 µg/mL (≈ 191 µM) against Bacillus thuringiensis; 0.25 µg/mL (≈ 0.748 µM) in the experiment on Staphylococcus aureus; 250 µg/mL (≈ 748 µM) against Ralstonia solanacearum; 250 µg/mL (≈ 748 µM) against Xanthomonas vesicatoria. Moreover, the lowest concentration to inhibit growth in experiment [2] (MIC) was 250 µg/mL (≈ 748 µM).
As to `COC(=O)Nc1cc(Br)c(Br)cc1C(=O)OC`, the MIC (in experiment [1]; in the experiment with Bacillus subtilis; against Bacillus thuringiensis; with Staphylococcus aureus; against Ralstonia solanacearum; in the experiment with Xanthomonas vesicatoria) was greater than 250 µg/mL each time. The MIC in experiment [2] is greater than 250 µg/mL.
